Data on ten molecules can be found in PMC9267968, “Continued Structural Exploration of Sulfocoumarin as Selective Inhibitor of Tumor-Associated Human Carbonic Anhydrases IX and XII” (Molecules, 2022).

Like-named read-outs stand apart in the source and are kept apart here.

One series concerns the target T1, hCA I (Homo sapiens, UniProt P00915).
T1 construct: made in house
In words: stopped-flow CO2 hydrase assay, hCA I inhibition. The class given is biochemical. As to conditions: 6 h incubation of enzyme and inhibitor; mean from 3 different assays, errors 5-10%; read-out: KI (nM) CA I. The protocol:
(§1) For this reason, we herein report a 6 h incubation time instead.
(§2) An Applied Photophysics stopped-flow instrument was used for assaying the CA catalyzed CO2 hydration activity. […] The uncatalyzed rates were determined in the same manner and subtracted from the total observed rates. Stock solutions of inhibitor (0.1 mM) were prepared in distilled–deionized water and dilutions up to 0.01 nM were done thereafter with the assay buffer. Inhibitor and enzyme solutions were preincubated together for 6h at room temperature prior to assay, in order to allow for the formation of the E-I complex. The inhibition constants were obtained by non-linear least-squares methods using PRISM 3 and the Cheng–Prusoff equation and represent the mean from at least three different determinations. […] All CA isoforms were recombinant ones obtained in-house.

The target in a further series is T2, hCA IX (Homo sapiens, UniProt Q16790).
T2 construct: made in house
In words: stopped-flow CO2 hydrase assay, hCA IX inhibition. As to conditions: 6 h incubation of enzyme and inhibitor; mean from 3 different assays, errors 5-10%; read-out: KI (nM) CA IX. The class given is biochemical. The protocol: as §1, §2

Another series addresses T3, hCA II (Homo sapiens, UniProt P00918).
T3 construct: made in house
In words: stopped-flow CO2 hydrase assay, hCA II inhibition. The class given is biochemical. The conditions noted are these: 6 h incubation of enzyme and inhibitor; mean from 3 different assays, errors 5-10%; read-out: KI (nM) CA II. How it is done:
as §1, §2

The next series has as its target T4, hCA XII (Homo sapiens, UniProt O43570).
T4 construct: made in house
In words: biochemical. How it is done:
as §1, §2

Setting [1] is: 6 h incubation of enzyme and inhibitor, mean from 3 different assays, errors 5-10%, read-out: KI (nM) CA XII.

T1 sequence (P00915 whole entry): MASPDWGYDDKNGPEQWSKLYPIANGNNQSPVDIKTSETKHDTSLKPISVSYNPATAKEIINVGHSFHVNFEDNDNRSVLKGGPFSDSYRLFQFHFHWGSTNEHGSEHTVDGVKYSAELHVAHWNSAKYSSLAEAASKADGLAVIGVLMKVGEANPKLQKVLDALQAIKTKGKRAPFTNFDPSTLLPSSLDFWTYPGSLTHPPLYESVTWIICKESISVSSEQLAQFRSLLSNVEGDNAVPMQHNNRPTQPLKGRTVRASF
T4 sequence (O43570 25-354): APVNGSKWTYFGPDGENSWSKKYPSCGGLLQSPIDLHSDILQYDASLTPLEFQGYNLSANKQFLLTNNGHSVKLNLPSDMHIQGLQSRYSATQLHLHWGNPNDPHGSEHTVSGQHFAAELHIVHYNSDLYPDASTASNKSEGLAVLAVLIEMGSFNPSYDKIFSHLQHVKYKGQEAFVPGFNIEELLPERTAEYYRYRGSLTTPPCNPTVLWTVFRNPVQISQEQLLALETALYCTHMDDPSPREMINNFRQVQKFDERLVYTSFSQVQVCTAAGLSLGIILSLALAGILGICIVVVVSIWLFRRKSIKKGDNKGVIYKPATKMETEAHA

What is called Ki is the equilibrium dissociation constant of an inhibitor or competing ligand from its target. The melting point is the temperature of the solid-liquid transition. In turn, `O=C(O)C1=Cc2ccccc2OS1(=O)=O` [Compound 36, benzo[e][1,2]oxathiine-3-carboxylic acid 2,2-dioxide] displayed a melting point of 105 to 107 °C. Further, at hCA I, the Ki was 4620 nM. In addition, the Ki on hCA IX amounted to 500 nM. Moreover, the Ki on hCA II came out at 996 nM. The molecule further registered an inhibitory constant (Ki) at hCA XII of 564 nM.
Molecule `COc1ccc(NC(=O)C2=Cc3ccc(OC)cc3OS2(=O)=O)cc1` [Compound 46, N-(4-methoxyphenyl)-7-methoxybenzo[e][1,2]oxathiine-3-carboxamide 2,2-dioxide] had a melting point of 238 to 240 °C. At hCA I, the Ki was over 100000 nM. In addition, the Ki at hCA IX came to 4370 nM. Besides, the Ki at hCA II is over 100000 nM. This molecule also displayed a Ki at hCA XII of 6550 nM.
The molecule `COc1ccc2c(c1)OS(=O)(=O)C(C(=O)Nc1ccccc1)=C2` [Compound 43, 7-methoxy-N-phenylbenzo[e][1,2]oxathiine-3-carboxamide 2,2-dioxide] yielded a melting point of 241 to 244 °C. In addition, at hCA I, the inhibitory constant (Ki) was over 100000 nM. The Ki at hCA IX was determined as 2430 nM. For the same molecule, the Ki on hCA II was over 100000 nM. In addition, the inhibitory constant (Ki) on hCA XII is 1590 nM.
For `O=C(Nc1ccc(Br)cc1)C1=Cc2ccccc2OS1(=O)=O` [Compound 39, N-(4-bromophenyl)benzo[e][1,2]oxathiine-3-carboxamide 2,2-dioxide], the melting point is 249 to 252 °C. Moreover, the Ki at hCA I is over 100000 nM. Further, the Ki on hCA IX came to 34300 nM. Also, on hCA II, the Ki is over 100000 nM. This molecule also returned a Ki on hCA XII of 59000 nM.
`CC1=CS(=O)(=O)Oc2cc(OCc3ccc(F)cc3)ccc21` [Compound 19, 7-((4-fluorobenzyl)oxy)-4-methylbenzo[e][1,2]oxathiine 2,2-dioxide] returned a melting point of 195 to 198 °C. The Ki at hCA I is over 100000 nM. On hCA IX, the Ki was determined as 14.3 nM. Also, the Ki at hCA II was over 100000 nM. The Ki on hCA XII (setting [1]) amounted to 41.7 nM.
Regarding `O=C(Nc1cccc(Br)c1)C1=Cc2ccccc2OS1(=O)=O` [Compound 40, N-(3-bromophenyl)benzo[e][1,2]oxathiine-3-carboxamide 2,2-dioxide], the melting point lay in the range of 228 to 229 °C. For the same molecule, the Ki at hCA I was over 100000 nM. Further, on hCA IX, the Ki is 40800 nM. Moreover, the Ki on hCA II was over 100000 nM. Besides, the Ki on hCA XII was determined as 78300 nM.
Turning to `COc1cccc(NC(=O)C2=Cc3ccc(OC)cc3OS2(=O)=O)c1` [Compound 47, N-(3-methoxyphenyl)-7-methoxybenzo[e][1,2]oxathiine-3-carboxamide 2,2-dioxide], the melting point lay in the range of 222 to 225 °C. In addition, at hCA I, the Ki was over 100000 nM. The Ki at hCA IX is 6560 nM. Besides, at hCA II, the Ki was over 100000 nM. This molecule also had a Ki on hCA XII of 2470 nM.
As to `COc1ccc2c(c1)OS(=O)(=O)C(C(=O)Nc1ccc(Br)cc1)=C2` [Compound 44, N-(4-bromophenyl)-7methoxybenzo[e][1,2]oxathiine-3-carboxamide 2,2-dioxide], the melting point fell in the range of 272 to 275 °C. Also, the Ki at hCA I was over 100000 nM. For the same molecule, at hCA IX, the Ki was determined as 51500 nM. Besides, the Ki at hCA II is over 100000 nM. The molecule also gave a Ki at hCA XII of 42500 nM.
The molecule `O=S1(=O)Oc2cc(OCc3ccc(F)cc3)ccc2-c2ccccc21` [Compound 28, 3-((4-fluorobenzyl)oxy)dibenzo[c,e][1,2]oxathiine 6,6-dioxide] displayed a melting point of 268 to 269 °C. Also, at hCA I, the inhibition constant Ki is over 100000 nM. Moreover, the Ki at hCA IX turned out to be 755 nM. Moreover, the Ki at hCA II is over 100000 nM. For the same molecule, at hCA XII (setting [1]), the inhibitory constant (Ki) came to 654 nM.
Molecule `CCOC(=O)C1=Cc2ccc(OC)cc2OS1(=O)=O` [Compound 35, ethyl 7-methoxybenzo[e][1,2]oxathiine-3-carboxylate 2,2-dioxide] gave a melting point of 167 to 169 °C. The Ki on hCA I was over 100000 nM. Also, the Ki on hCA IX turned out to be 1080 nM. Also, the Ki on hCA II was over 100000 nM. In addition, at hCA XII, the Ki was determined as 1530 nM.
